Article PMC10341549, “Inhibitory Investigations of Acyl-CoA Derivatives against Human Lipoxygenase Isozymes” (International Journal of Molecular Sciences, 2023)

Columns and labels:
Assay type in all cases: biochemical
[1] = molecular target: T1, h12-LOX (Homo sapiens, UniProt P18054); assay: IC50 determination against h12-LOX; conditions: methyl esters; 10 μM AA, pH 8.00; read-out: IC50 h12-LOX (methyl ester unsaturated fatty acids)
T1 construct: His tag; made in house
T1 sequence (P18054 1-663): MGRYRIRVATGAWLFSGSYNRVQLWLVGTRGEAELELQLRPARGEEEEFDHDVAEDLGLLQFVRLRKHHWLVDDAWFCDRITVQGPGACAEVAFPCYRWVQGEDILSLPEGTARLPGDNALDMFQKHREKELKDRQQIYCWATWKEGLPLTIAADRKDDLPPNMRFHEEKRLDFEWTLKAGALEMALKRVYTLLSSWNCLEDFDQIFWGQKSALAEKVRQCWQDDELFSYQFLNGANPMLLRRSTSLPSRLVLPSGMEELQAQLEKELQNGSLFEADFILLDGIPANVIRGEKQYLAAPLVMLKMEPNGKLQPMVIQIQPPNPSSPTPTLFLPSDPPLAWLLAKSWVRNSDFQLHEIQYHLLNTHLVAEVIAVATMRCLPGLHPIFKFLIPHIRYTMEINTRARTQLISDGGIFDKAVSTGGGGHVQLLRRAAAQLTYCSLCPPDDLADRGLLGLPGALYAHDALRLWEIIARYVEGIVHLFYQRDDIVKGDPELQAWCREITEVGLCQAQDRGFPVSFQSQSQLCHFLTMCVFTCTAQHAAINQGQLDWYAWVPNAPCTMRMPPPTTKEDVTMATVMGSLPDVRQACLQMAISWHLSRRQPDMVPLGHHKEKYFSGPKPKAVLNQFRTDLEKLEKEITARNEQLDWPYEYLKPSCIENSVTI
Protocol: (§1) Overexpression and purification of his-tagged wild-type h12-LOX (Uniprot entry P18054), h15-LOX-1 (Uniprot entry P16050), and h15-LOX-2 (Uniprot entry O15296) were performed using nickel-affinity chromatography. The purity of h12-LOX, h15-LOX-1, and h15-LOX-2 was assessed using SDS gel as greater than 85%, and metal content was assessed with a Finnigan inductively coupled plasma mass spectrometer (ICP-MS, Thermo Fischer Scientific, San Jose, USA) via comparison with iron standard solution. Cobalt-EDTA was used as an internal standard. WT h5-LOX (UniProt entry P09917) was expressed in Rosetta 2 cells (Novagen) transformed with the pET14b-Stable-5-LOX plasmid (a gift from Marcia Newcomer of Louisiana State University) and grown in Terrific Broth containing 34 μg/mL chloramphenicol and 100 μg/mL ampicillin at 37 °C for 3.5 h, then placed at 20 °C for an additional 26 h. Cells were pelleted and resuspended in 50 mM Tris (pH 8.0), 500 mM NaCl, 20 mM imidazole with 1 μM pepstatin, 100 μM PMSF, and DNaseI (Sigma, Kanagawa, Japan). The cells were lysed in a French pressure cell and centrifuged at 40,000× g for 20 min at 4 °C. Saturated ammonium sulfate was added to achieve a final solution of 10% and inverted several times. The lysate was centrifuged at 40,000× g for 10 min at 4 °C. The pellet was discarded, and the supernatant was increased to a final concentration of 50% ammonium sulfate. The supernatant was rotated for 10 min at 4 °C then centrifuged at 40,000× g for 10 min at 4 °C. The pellet was split into 150 mg aliquots. The WT h5-LOX used for the kinetics in this work was not purified due to a dramatic loss in activity and was therefore prepared as an ammonium-sulfate precipitate.
IC50 values for each acyl-CoA were measured against h5-LOX, h12-LOX, h15-LOX-1, and h15-LOX-2. […] The fastest rates over 15 s intervals were recorded. […]

[2] = molecular target: T2, h15-LOX-1 (Homo sapiens, UniProt P16050); assay: IC50 determination against h15-LOX-1; conditions: 10 μM AA, 25 mM HEPES pH 7.5, 0.01% Triton X-100, 22 °C
T2 construct: His tag; made in house
T2 sequence (P16050 1-662): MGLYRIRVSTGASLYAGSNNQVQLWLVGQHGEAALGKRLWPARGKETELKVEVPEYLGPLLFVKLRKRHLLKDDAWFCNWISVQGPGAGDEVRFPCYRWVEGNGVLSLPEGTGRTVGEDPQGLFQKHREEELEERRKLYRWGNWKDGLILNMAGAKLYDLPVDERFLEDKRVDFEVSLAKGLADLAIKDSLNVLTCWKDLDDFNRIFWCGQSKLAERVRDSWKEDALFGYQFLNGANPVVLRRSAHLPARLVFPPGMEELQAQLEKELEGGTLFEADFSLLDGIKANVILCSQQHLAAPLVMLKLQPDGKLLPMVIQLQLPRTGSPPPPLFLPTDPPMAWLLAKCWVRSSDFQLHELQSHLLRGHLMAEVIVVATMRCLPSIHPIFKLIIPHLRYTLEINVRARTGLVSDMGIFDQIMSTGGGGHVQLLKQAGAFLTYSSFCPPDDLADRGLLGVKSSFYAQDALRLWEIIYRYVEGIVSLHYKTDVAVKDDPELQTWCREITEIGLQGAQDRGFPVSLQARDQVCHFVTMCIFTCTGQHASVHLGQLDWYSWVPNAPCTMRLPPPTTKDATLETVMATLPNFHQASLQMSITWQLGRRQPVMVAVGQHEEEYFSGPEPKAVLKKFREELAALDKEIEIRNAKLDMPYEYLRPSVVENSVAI
Protocol: as §1
(§2) IC50 values for each acyl-CoA were measured against h5-LOX, h12-LOX, h15-LOX-1, and h15-LOX-2. The reactions were carried out in 25 mM HEPES buffer (pH 8.00), 0.01% Triton X-100, and 10 μM AA for h12-LOX; 25 mM HEPES buffer (pH 7.5), 0.01% Triton X-100, and 10 μM AA for h15-LOX-1 and h15-LOX-2; and 50 mM HEPES buffer (pH 7.5), 100 µM EDTA, 50 mM NaCl, 200 µM ATP, and 10 μM AA for h5-LOX. IC50 reactions were implemented with h15-LOX-1 (0.125 μM), h12-LOX (0.300 μM), h15-LOX-2 (0.5 μM), and h5-LOX (∼600 nM ammonium sulfate salt) at 22 °C in a 1 cm^2 quartz cuvette containing 2 mL of the according buffer and 10 μM AA for no longer than 2 min to avoid any cleavage of the acyl-coenzyme A. Inhibitor concentrations ranging from 50 μM to 0.01 μM were used. All reactions were conducted using a Cary-UV Vis spectrophotometer (Agilent, Santa Clara, CA, USA). The fastest rates over 15 s intervals were recorded. IC50 values were obtained by determining the percent of inhibition of the enzymatic rate at ten inhibitor concentrations and plotting the rate against the inhibitor concentration, followed by a hyperbolic saturation curve fit. The saturation curve fits were performed in duplicate or triplicate, depending on the quality of the data. […] Through HPLC monitoring, we were able to determine a lack of degradation of the fatty acyl-CoAs over the first hour.

[3] = molecular target: T3, h15-LOX-2 (Homo sapiens, UniProt O15296); assay: IC50 determination against h15-LOX-2; conditions: 10 μM AA, 25 mM HEPES pH 7.5, 0.01% Triton X-100, 22 °C
T3 construct: His tag; made in house
T3 sequence (O15296 1-676): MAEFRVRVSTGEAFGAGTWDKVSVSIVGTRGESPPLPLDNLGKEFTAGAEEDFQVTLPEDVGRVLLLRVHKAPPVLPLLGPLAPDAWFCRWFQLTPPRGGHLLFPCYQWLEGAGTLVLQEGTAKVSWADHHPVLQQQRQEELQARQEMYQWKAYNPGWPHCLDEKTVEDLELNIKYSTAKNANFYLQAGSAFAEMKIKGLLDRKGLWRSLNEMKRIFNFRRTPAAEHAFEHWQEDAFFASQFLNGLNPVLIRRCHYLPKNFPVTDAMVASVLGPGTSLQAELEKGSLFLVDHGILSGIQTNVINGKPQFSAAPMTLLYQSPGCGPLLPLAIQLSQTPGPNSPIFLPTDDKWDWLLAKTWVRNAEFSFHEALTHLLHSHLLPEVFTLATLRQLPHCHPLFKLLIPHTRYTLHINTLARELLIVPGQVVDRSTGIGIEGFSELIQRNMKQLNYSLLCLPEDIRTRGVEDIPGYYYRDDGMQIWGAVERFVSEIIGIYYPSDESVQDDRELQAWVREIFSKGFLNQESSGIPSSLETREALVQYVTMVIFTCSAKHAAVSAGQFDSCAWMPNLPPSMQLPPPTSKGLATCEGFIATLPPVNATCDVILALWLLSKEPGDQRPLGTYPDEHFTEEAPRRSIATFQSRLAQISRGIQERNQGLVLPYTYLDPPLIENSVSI
Protocol: as §1, §2

[4] = molecular target: T2, h15-LOX-1; assay: Substrate activity and kinetic parameters with h15-LOX-1; conditions: acyl-CoAs tested at 70 µM; change in absorbance at 234 nm
Protocol: Considering that some of these acyl-CoAs could potentially be substrates for LOX isozymes, each acyl-CoA was tested at 70 µM against each LOX isozyme to establish the possibility of catalysis.
The same buffer as used to determine IC50 values for h5-LOX was used for product determination. Turnover was monitored by absorbance at 234 nm.

Row | Compound | IC50 [1] [µM] | IC50 [2] [µM] | IC50 [3] [µM] | Substrate activity with h15-LOX-1 [4]
1 | CC/C=C\C/C=C\C/C=C\CCCCCCCCCCCC(=O)OC [methyl 13(Z),16(Z),19(Z)-docosatrienoate, methyl-13(Z),16(Z),19(Z)-docosatrienoate (22:3)] | > 200 | > 200 | > 200 | 
2 | CC/C=C\C/C=C\C/C=C\CC/C=C\CCCCCCCC(=O)OC [methyl docosatetraenoate, methyl-9(Z),13(Z),16(Z),19(Z)-docosatetraenoate (22:4)] | > 200 | > 200 | > 200 | 
3 | CCCCC/C=C\C/C=C\C/C=C\C/C=C\CCCC(=O)OC [methyl ester arachidonic acid] |  |  |  | substrates
4 | CCCCC/C=C\C/C=C\CCCCCCCCCCCC(=O)OC [methyl-13Z,16Z-docosadienoic, methyl-13Z,16Z-docosadienoic (22:2)] | > 200 | > 200 | > 200 | 
